Measurements as given in the supplement of paper PMC10307832.

How the values were obtained:
Assay in all cases: relative viability (nuclei count vs DMSO), 5 days (fraction); higher = more cells survive
Axitinib + Alpelisib = compound: CNC(=O)c1ccccc1Sc1ccc2c(/C=C/c3ccccn3)n[nH]c2c1 [Axitinib] + Cc1nc(NC(=O)N2CCC[C@H]2C(N)=O)sc1-c1ccnc(C(C)(C)C(F)(F)F)c1 [Alpelisib] (partner 2 µM)
How it was run: (§1)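 Five library-drug doses in √10 steps were combined with a fixed anchor-drug dose, or a single drug was given alone, by pin tool to lung cancer cell lines in 1536-well plates the day after seeding. Nuclei were stained and counted after 5 days. Relative viability is the nuclei count in treated wells over that in vehicle wells, taken as the median of duplicate plates.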

Axitinib + Vorinostat = compound: CNC(=O)c1ccccc1Sc1ccc2c(/C=C/c3ccccn3)n[nH]c2c1 [Axitinib] + O=C(CCCCCCC(=O)Nc1ccccc1)NO [Vorinostat] (partner 1 µM)
How it was run: as §1

Bemcentinib + Tozasertib = compound: Nc1nc(Nc2ccc3c(c2)CC[C@@H](N2CCCC2)CC3)nn1-c1cc2c(nn1)-c1ccccc1CCC2 [Bemcentinib] + Cc1cc(Nc2cc(N3CCN(C)CC3)nc(Sc3ccc(NC(=O)C4CC4)cc3)n2)n[nH]1 [Tozasertib] (partner 0.1 µM)
How it was run: as §1

Bemcentinib + Dasatinib = compound: Nc1nc(Nc2ccc3c(c2)CC[C@@H](N2CCCC2)CC3)nn1-c1cc2c(nn1)-c1ccccc1CCC2 [Bemcentinib] + Cc1nc(Nc2ncc(C(=O)Nc3c(C)cccc3Cl)s2)cc(N2CCN(CCO)CC2)n1 [Dasatinib] (partner 0.075 µM)
How it was run: as §1

| Cell Line | relative viability (Axitinib + Alpelisib; first compound 0.005 µM) | relative viability (Axitinib + Alpelisib; first compound 0.01581 µM) | relative viability (Axitinib + Alpelisib; first compound 0.05 µM) | relative viability (Axitinib + Alpelisib; first compound 0.1581 µM) | relative viability (Axitinib + Alpelisib; first compound 0.5 µM) | relative viability (Axitinib + Vorinostat; first compound 0.005 µM) | relative viability (Axitinib + Vorinostat; first compound 0.01581 µM) | relative viability (Axitinib + Vorinostat; first compound 0.05 µM) | relative viability (Axitinib + Vorinostat; first compound 0.1581 µM) | relative viability (Axitinib + Vorinostat; first compound 0.5 µM) | relative viability (Bemcentinib + Tozasertib; first compound 0.04 µM) | relative viability (Bemcentinib + Tozasertib; first compound 0.1265 µM) | relative viability (Bemcentinib + Tozasertib; first compound 0.4 µM) | relative viability (Bemcentinib + Tozasertib; first compound 1.265 µM) | relative viability (Bemcentinib + Tozasertib; first compound 4 µM) | relative viability (Bemcentinib + Dasatinib; first compound 0.04 µM) | relative viability (Bemcentinib + Dasatinib; first compound 0.1265 µM) | relative viability (Bemcentinib + Dasatinib; first compound 0.4 µM) | relative viability (Bemcentinib + Dasatinib; first compound 1.265 µM) | relative viability (Bemcentinib + Dasatinib; first compound 4 µM) |
| --- | --- | --- | --- | --- | --- | --- | --- | --- | --- | --- | --- | --- | --- | --- | --- | --- | --- | --- | --- | --- |
| NCI-H1651 | 1.03 | 0.944 | 0.971 | 0.937 | 1.12 | 0.563 | 0.542 | 0.537 | 0.548 | 0.59 | 0.671 | 0.835 | 0.87 | 0.77 | 0.635 | 0.393 | 0.381 | 0.484 | 0.41 | 0.498 |
| NCI-H661 | 0.613 | 0.509 | 1.02 | 0.862 | 0.511 | 0.79 | 0.861 | 0.776 | 0.779 | 0.873 | 0.357 | 0.344 | 0.338 | 0.34 | 0.339 | 0.77 | 0.877 | 0.924 | 0.832 | 0.913 |
| NCI-H23 | 0.83 | 0.862 | 0.554 | 0.861 | 0.796 | 0.644 | 0.51 | 0.674 | 0.583 | 0.667 | 0.389 | 0.632 | 0.327 | 0.407 | 0.366 | 0.476 | 0.884 | 0.985 | 0.632 | 0.828 |
| PC-14 | 1.02 | 0.931 | 0.94 | 0.893 | 1.05 | 0.792 | 0.336 | 0.702 | 0.643 | 1.06 | 0.584 | 0.706 | 0.538 | 0.645 | 0.601 | 0.236 | 0.259 | 0.249 | 0.224 | 0.236 |
| H3255 | 0.648 | 0.611 | 0.632 | 0.724 | 0.702 | 0.806 | – | 0.927 | 0.844 | 0.796 | 0.566 | 0.678 | 0.619 | 0.782 | 0.655 | 0.308 | 0.396 | 0.315 | 0.332 | 0.346 |
| NCI-H3122 | 0.753 | 0.719 | 0.843 | 0.711 | 0.792 | 0.914 | 1.06 | 1.05 | 0.888 | 1.02 | – | 0.488 | 0.402 | 0.427 | 0.381 | – | 0.751 | 0.768 | 0.888 | 0.933 |
| NCI-H2009 | 1.21 | 1.2 | 1.13 | 1.2 | 1.29 | 0.732 | 0.783 | 0.736 | 0.716 | 0.821 | 0.741 | 0.785 | 0.765 | 0.569 | 0.677 | 0.24 | 0.303 | 0.276 | 0.272 | 0.247 |
| HCC-827 | 0.955 | 0.923 | 0.991 | 0.978 | 1.08 | 0.809 | 0.505 | 0.863 | 0.746 | 0.925 | 0.474 | 0.458 | 0.421 | 0.408 | 0.417 | 0.305 | 0.385 | 0.273 | 0.4 | 0.3 |
| LXF-289 | 1.05 | 0.961 | 1.03 | 0.958 | 1.05 | 0.777 | 0.74 | 0.791 | 0.716 | 0.732 | 0.179 | 0.2 | 0.185 | 0.185 | 0.205 | 0.206 | 0.178 | 0.212 | 0.241 | 0.187 |
| NCI-H596 | 0.503 | 0.624 | 0.531 | 0.599 | 0.553 | 0.764 | 0.627 | 0.576 | 0.558 | 0.575 | 0.87 | 1.05 | 1.14 | 0.94 | 0.799 | 0.454 | 0.604 | 0.575 | 0.593 | 0.627 |
| NCI-H727 | 0.612 | 0.524 | 1.43 | 0.538 | 0.783 | 1.16 | 1.33 | 1.16 | 1.35 | 1.21 | 0.537 | 0.759 | 0.606 | 0.629 | 0.58 | 0.394 | 0.4 | 0.319 | 0.337 | 0.441 |
| NCI-H1993 | 0.664 | 0.643 | 0.655 | 0.784 | 0.693 | 0.826 | 0.835 | 0.734 | 0.722 | 0.876 | 0.548 | 0.551 | 0.592 | 0.56 | 0.588 | 0.571 | 0.563 | 0.625 | 0.552 | 0.577 |
| NCI-H1437 | 1.01 | 1.01 | 1.01 | 0.929 | 1.06 | 0.942 | 0.85 | 0.86 | 0.876 | 0.78 | 0.399 | 0.435 | 0.436 | 0.421 | 0.401 | 0.365 | 0.421 | 0.416 | 0.438 | 0.38 |
| NCI-H2023 | 0.696 | 0.615 | 0.551 | 0.54 | 0.682 | 0.545 | 0.604 | 0.607 | 0.557 | 0.796 | 0.484 | 0.438 | 0.433 | 0.295 | 0.273 | 0.56 | 0.727 | 0.606 | 0.677 | 0.64 |
| LK-2 | 1.02 | 0.853 | 0.838 | 0.902 | 0.828 | 0.343 | 0.292 | 0.209 | 0.301 | 0.232 | 0.166 | 0.164 | 0.19 | 0.178 | 0.168 | 0.248 | 0.246 | 0.31 | 0.27 | 0.349 |
| HOP-62 | 1.07 | 1.22 | 0.78 | 0.998 | 1.2 | 0.713 | 0.686 | 0.585 | 0.696 | 0.76 | 0.379 | 0.413 | 0.35 | 0.39 | 0.387 | 0.639 | 0.656 | 0.768 | 0.552 | 0.718 |
